Values after ≈ are worked out from the molar mass of the structure shown. One block for each molecule: values may come before it.
Tests used:
MKN-28 cell [1] = assay: MTT method, cell proliferation inhibition by cell fractions; format: cell-based; details: Homo sapiens
Experimental: (§1) More particularly, cells for evaluation, i.e., a cancer cell line (for example, an MKN-28 cell or a HeLa cell) and a normal cell (for example, an MRC-5 cell or an HEF cell) are prepared as cell suspensions. An appropriately diluted series (for example, 1/2, 1/4, 1/8, 1/16, and 1/32) of a DNase solution are poured into each well of a microplate. After each cell suspension is further added into each well, the cells are cultivated for a predetermined period (for example, 4 days). After the cultivation, an MTT [3-(4,5-dimethylthiazol-2-yl)-2,5-diphenyltetrazolium bromide; Sigma chemical Co.] solution is added into each well. After an incubation for a predetermined period (for example, at 37° C. for 4 hours), a culture supernatant is removed from each well, and then an MTT formazan elution liquid [acidified isopropanol containing 10% (V/V) Triton X-100] is added into each well. […] The IC50 value is indicated as a dilution of a test liquid or a concentration (for example, μg/mL) of a test drug which can inhibit a proliferation of a control cell (without an antitumor agent) to 50%. When the dilution is high, or when the drug concentration is low, it can be judged that the drug (substance) tested has a high activity.
(§2) As cells for evaluation, the MKN-28 cell and the HeLa cell were used as cancer cell lines, and the MRC-5 cell was used as a normal cell. After each cell line was cultured for 3 days, cells were treated with trypsin, and dispersed cells were washed with PBS by centrifugation. Washed cells were suspended in a Dulbecco's modified Eagle's MEM medium containing 8% fetal calf serum (hereinafter referred to as GM), and counted with a hemocytometer. Each cell suspension was adjusted with the GM to cell densities of 5000 cells/50 μL and 2500 cells/50 μL (cancer cell lines) or 10000 cells/50 μL and 5000 cells/50 μL (MRC-5 cell).
(§3) To each well in a 96-well flat-bottomed plate, diluted series (undiluted, 1/2, 1/4, 1/8, 1/16, and 1/32; 50 μL/well) of each centrifugal supernatant or centrifugal pellet prepared in Example 1 were added. Further, each cell suspension was added to each well, and the plate was incubated at 37° C. in a CO2 incubator. After 3 or 4 days from the beginning of the incubation, 20 μL/well of an MTT solution was added to each well, and the plate was incubated at 37° C. for 3 hours. The culture supernatant was removed from each well, and 100 μL of an MTT formazan elution liquid was added to each well.
(§4) As a control, PBS was used instead of the diluted series of each centrifugal supernatant or centrifugal pellet. For comparison, 5-fold-diluted series (100 μg/mL, 20 μg/mL, 4 μg/mL, 0.8 μg/mL, 0.16 μg/mL, and 0.032 μg/mL) of 5-fluorouracil (5-FU) were used instead of the diluted series of each centrifugal supernatant or centrifugal pellet.
(§5) The IC50 values when the cancer cell line MKN-28 was used as the cell for evaluation and the centrifugal supernatant and the centrifugal pellet derived from the MKN-28 cell were used as the cell fraction are shown in Table 6. Each IC50 value shown in Table 6 (or Tables 7 to 10 described below) is an average of plural (two to four) values. Each IC50 value is shown as a dilution (i.e., relative value) of a test liquid [or a concentration of a test drug (μg/mL for 5-FU)] which can inhibit a proliferation of a control cell (without an antitumor agent) to 50%.

MRC-5 cell [2] = assay: as above; format: cell-based; details: Homo sapiens
Experimental: as §1, §2, §3, §4, §5

HeLa cell = assay: as above; format: cell-based; details: Homo sapiens
Experimental: as §1, §2, §3, §4, §5

MKN-28 cell [3] = assay: Appearance of mitotic (round) cells after colcemid treatment; format: cell-based, human
Experimental: (§6) A synthetic colchicine, colcemid (J. Radiat. Res., 14, 258-270, 1971) was used to prepare the M-phase cell. The optimum conditions for obtaining the living M-phase cell, and the conditions for evaluation the activity of inhibiting a cell proliferation by the MTT method were examined.
(§7) More particularly, cells were cultivated in a 25-cm^2 culture flask (Falcon, 3014, 50 mL) for 3 days. After the mono-layered cells were washed, a growth medium supplemented with 0.025 μg/mL of colcemid (Nakarai, 09356-74) was added, and incubated at 37° C. for 6 hours. After the cells were washed gently, the culture flask was gently shaken to collect cells removed from the bottom of the flask. The collected cells were washed with the medium (GM) by centrifugation to remove colcemid. The washed cells were suspended in the growth medium and incubated.
(§8) The incubated cells were observed under a microscope at intervals of an hour; an appearance of mitotic cells is shown in Table 19. The appearance of mitotic cells was judged by an appearance of round cells as an index. Although almost cultured cells adhere to the glass surface and are thinly spread, mitotic cells become round and tend to leave the glass surface. Therefore, an appearance of round cells which tend to leave the monolayer was used as the index.
(§9) In Table 19, “−” means that the round cells appeared at a percentage of 0% with respect to the whole cells, “±” means that the round cells appeared at a percentage less than 5%, and “+” means that the round cells appeared at a percentage from 5% to less than 30%. The numbers in parentheses of “Round cells/flask” are numbers of positive cells strained by trypan blue.

MRC-5 cell [4] = assay: as above; format: cell-based, human
Experimental: as §6, §7, §8, §9

- IC50 (MKN-28 cell [1]; MKN-28, 72 h, Table 6, MKN (3 days), 2500 cells/well): 4.6 µg/mL (≈ 35.4 µM)
- IC50 (MKN-28 cell [1]; MKN-28, 72 h, Table 6, MKN (3 days), 5000 cells/well): 5.9 µg/mL (≈ 45.4 µM)
- IC50 (MKN-28 cell [1]; MKN-28, 72 h, Table 9, 3-day cultivation, MKN, 2500 cells/well): 4.6 µg/mL (≈ 35.4 µM)
- IC50 (MKN-28 cell [1]; MKN-28, 72 h, Table 9, 3-day cultivation, MKN, 5000 cells/well): 6 µg/mL (≈ 46.1 µM)
- IC50 (MKN-28 cell [1]; MKN-28, 96 h, Table 6, MKN (4 days), 2500 cells/well): 3.7 µg/mL (≈ 28.4 µM)
- IC50 (MKN-28 cell [1]; MKN-28, 96 h, Table 6, MKN (4 days), 5000 cells/well): 14.8 µg/mL (≈ 114 µM)
- IC50 (MKN-28 cell [1]; MKN-28, 96 h, Table 10, 4-day cultivation, MKN, 2500 cells/well): 4.7 µg/mL (≈ 36.1 µM)
- IC50 (MKN-28 cell [1]; MKN-28, 96 h, Table 10, 4-day cultivation, MKN, 5000 cells/well): 11.6 µg/mL (≈ 89.2 µM)
- IC50 (HeLa cell; 72 h, Table 7, HeLa (3 days), 2500 cells/well): 5 µg/mL (≈ 38.4 µM)
- IC50 (HeLa cell; 72 h, Table 7, HeLa (3 days), 5000 cells/well): 7.3 µg/mL (≈ 56.1 µM)
- IC50 (HeLa cell; 72 h, Table 9, 3-day cultivation, 2500 cells/well): 7 µg/mL (≈ 53.8 µM)
- IC50 (HeLa cell; 72 h, Table 9, 3-day cultivation, 5000 cells/well): 12 µg/mL (≈ 92.3 µM)
- IC50 (HeLa cell; 96 h, Table 7, HeLa (4 days), 2500 cells/well): 3.6 µg/mL (≈ 27.7 µM)
- IC50 (HeLa cell; 96 h, Table 7, HeLa (4 days), 5000 cells/well): 3.6 µg/mL (≈ 27.7 µM)
- IC50 (HeLa cell; 96 h, Table 10, 4-day cultivation, 2500 cells/well): 6.2 µg/mL (≈ 47.7 µM)
- IC50 (HeLa cell; 96 h, Table 10, 4-day cultivation, 5000 cells/well): 13 µg/mL (≈ 99.9 µM)
Structure (SMILES): O=c1[nH]cc(F)c(=O)[nH]1 [5-FU, 5-fluorouracil]
- IC50 (MRC-5 cell [2]; MRC5, 72 h, Table 8, MRC (3 days), 5000 cells/well): > 100 µg/mL
- IC50 (MRC-5 cell [2]; MRC5, 72 h, Table 8, MRC (3 days), 10000 cells/well): > 100 µg/mL
- IC50 (MRC-5 cell [2]; MRC5, 72 h, Table 9, 3-day cultivation, MRC, 5000 cells/well): > 100 µg/mL
- IC50 (MRC-5 cell [2]; MRC5, 72 h, Table 9, 3-day cultivation, MRC, 10000 cells/well): > 100 µg/mL
- IC50 (MRC-5 cell [2]; MRC5, 96 h, Table 8, MRC (4 days), 5000 cells/well): 92 µg/mL (≈ 707 µM)
- IC50 (MRC-5 cell [2]; MRC5, 96 h, Table 8, MRC (4 days), 10000 cells/well): > 100 µg/mL
- IC50 (MRC-5 cell [2]; MRC5, 96 h, Table 10, 4-day cultivation, MRC, 5000 cells/well): 92 µg/mL (≈ 707 µM)
- IC50 (MRC-5 cell [2]; MRC5, 96 h, Table 10, 4-day cultivation, MRC, 10000 cells/well): > 100 µg/mL

Structure (SMILES): CN[C@H]1CCc2cc(OC)c(OC)c(OC)c2-c2ccc(OC)c(=O)cc21 [colcemid]
- Round cells/flask (MKN-28 cell [3]; MKN-28): 93000
- yield of colcemid-treated cells (number of cells after the treatment/number of cells before the treatment) (MKN-28 cell [3]; MKN-28): 1.4%
- Appearance of round cells (MKN-28 cell [3]; MKN-28, 1 hr, 0.025 μg/mL colcemid): − (the round cells appeared at a percentage of 0% with respect to the whole cells)
- Appearance of round cells (MKN-28 cell [3]; MKN-28, 2 hr): ± (the round cells appeared at a percentage less than 5%)
- Appearance of round cells (MKN-28 cell [3]; MKN-28, 3 hr): + (the round cells appeared at a percentage from 5% to less than 30%)
- Appearance of round cells (MKN-28 cell [3]; MKN-28, 4 hr): + (the round cells appeared at a percentage from 5% to less than 30%)
- Appearance of round cells (MKN-28 cell [3]; MKN-28, 5 hr): + (the round cells appeared at a percentage from 5% to less than 30%)
- Round cells/flask: positive cells strained by trypan blue (MKN-28 cell [3]; MKN-28, number in parentheses): 0
- Round cells/flask (MRC-5 cell [4]; MRC-5): 153000
- yield of colcemid-treated cells (number of cells after the treatment/number of cells before the treatment) (MRC-5 cell [4]; MRC-5): 29%
- Appearance of round cells (MRC-5 cell [4]; MRC-5, 1 hr, 0.025 μg/mL colcemid): − (the round cells appeared at a percentage of 0% with respect to the whole cells)
- Appearance of round cells (MRC-5 cell [4]; MRC-5, 2 hr): ± (the round cells appeared at a percentage less than 5%)
- Appearance of round cells (MRC-5 cell [4]; MRC-5, 3 hr): + (the round cells appeared at a percentage from 5% to less than 30%)
- Appearance of round cells (MRC-5 cell [4]; MRC-5, 4 hr): + (the round cells appeared at a percentage from 5% to less than 30%)
- Appearance of round cells (MRC-5 cell [4]; MRC-5, 5 hr): + (the round cells appeared at a percentage from 5% to less than 30%)
- Round cells/flask: positive cells strained by trypan blue (MRC-5 cell [4]; MRC-5, number in parentheses): 0

Source: US20060228347A1, “Antitumor agent and dnase” (Susumu SUNAGA and SUNNYVALE COMPANY, priority 2005, published 2006)
